{"source": "ChEMBL document CHEMBL3400018", "about": "“One-pot catalyst free synthesis of novel kojic acid tagged 2-aryl/alkyl substituted-4H-chromenes and evaluation of their antimicrobial and anti-biofilm activities” (Bioorg Med Chem Lett, 2015)", "key": {"Bacillus subtilis [1]": {"tested_on": "Bacillus subtilis", "assay": "Antimicrobial activity against Bacillus subtilis MTCC 121 assessed as inhibition of biofilm formation after 24 hrs", "type": "functional, organism-based", "conditions": "MTCC 121, 24 h"}, "Staphylococcus aureus [2]": {"tested_on": "Staphylococcus aureus", "assay": "Antimicrobial activity against Staphylococcus aureus MLS-16 MTCC 2940 assessed as inhibition of biofilm formation after 24 hrs", "type": "functional, organism-based", "conditions": "MLS-16, 24 h"}, "Escherichia coli [3]": {"tested_on": "Escherichia coli", "assay": "Antimicrobial activity against Escherichia coli MTCC 739 assessed as inhibition of biofilm formation after 24 hrs", "type": "functional, organism-based", "conditions": "MTCC 739, 24 h"}, "Staphylococcus aureus [4]": {"tested_on": "Staphylococcus aureus", "assay": "Antimicrobial activity against Staphylococcus aureus MLS-16 MTCC 2940 after 24 hrs by well diffusion method", "type": "functional", "conditions": "MLS-16 MTCC 2940, 24 h"}, "Escherichia coli [5]": {"tested_on": "Escherichia coli", "assay": "Antimicrobial activity against Escherichia coli MTCC 739 after 24 hrs by well diffusion method", "type": "functional", "conditions": "MTCC 739, 24 h"}, "Bacillus subtilis [6]": {"tested_on": "Bacillus subtilis", "assay": "Antimicrobial activity against Bacillus subtilis MTCC 121 after 24 hrs by well diffusion method", "type": "functional", "conditions": "MTCC 121, 24 h"}, "Candida albicans": {"tested_on": "Candida albicans", "assay": "Antimicrobial activity against Candida albicans MTCC 3017 after 24 hrs by well diffusion method", "type": "functional, organism-based"}, "Raoultella planticola": {"tested_on": "Raoultella planticola", "assay": "Antimicrobial activity against Klebsiella planticola MTCC 530 after 24 hrs by well diffusion method", "type": "functional", "conditions": "MTCC 530, 24 h"}, "Micrococcus luteus": {"tested_on": "Micrococcus luteus", "assay": "Antimicrobial activity against Micrococcus luteus MTCC 2470 after 24 hrs by well diffusion method", "type": "functional", "conditions": "MTCC 2470, 24 h"}, "Pseudomonas aeruginosa": {"tested_on": "Pseudomonas aeruginosa", "assay": "Antimicrobial activity against Pseudomonas aeruginosa MTCC 2453 after 24 hrs by well diffusion method", "type": "functional", "conditions": "MTCC 2453, 24 h"}, "Escherichia coli [7]": {"tested_on": "Escherichia coli", "assay": "Bactericidal activity against Escherichia coli MTCC 739 after 24 hrs by Mueller Hinton agar plate assay", "type": "functional", "conditions": "MTCC 739, 24 h"}, "Staphylococcus aureus [8]": {"tested_on": "Staphylococcus aureus", "assay": "Bactericidal activity against Staphylococcus aureus MLS-16 MTCC 2940 after 24 hrs by Mueller Hinton agar plate assay", "type": "functional", "conditions": "MLS-16, 24 h"}, "Bacillus subtilis [9]": {"tested_on": "Bacillus subtilis", "assay": "Bactericidal activity against Bacillus subtilis MTCC 121 after 24 hrs by Mueller Hinton agar plate assay", "type": "functional", "conditions": "MTCC 121, 24 h"}}, "note": "Activity calls are given as the source filed them. The rule behind the calls is not given here."}
{"compound": "CC[C@H]1OC(=O)[C@H](C)[C@@H](O[C@H]2C[C@@](C)(OC)[C@@H](O)[C@H](C)O2)[C@H](C)[C@@H](O[C@@H]2O[C@H](C)C[C@H](N(C)C)[C@H]2O)[C@](C)(O)C[C@@H](C)C(=O)[C@H](C)[C@@H](O)[C@]1(C)O", "note": "[ERYTHROMYCIN]", "values": [{"measurement": "IC50", "setting": "Bacillus subtilis [1]", "value": 0.19, "unit": "µg/mL"}, {"measurement": "IC50", "setting": "Staphylococcus aureus [2]", "value": 0.23, "unit": "µg/mL"}, {"measurement": "IC50", "setting": "Escherichia coli [3]", "value": 0.31, "unit": "µg/mL"}]}
{"compound": "O=c1cc(CO)oc(C2C=C(c3ccc4ccccc4c3)Oc3ccccc32)c1O", "note": "(stereo unspecified)", "values": [{"measurement": "MIC", "setting": "Staphylococcus aureus [4]", "value": "> 125", "unit": "µg/mL"}, {"measurement": "MIC", "setting": "Escherichia coli [5]", "value": "> 125", "unit": "µg/mL"}, {"measurement": "MIC", "setting": "Bacillus subtilis [6]", "value": "> 125", "unit": "µg/mL"}, {"measurement": "MIC", "setting": "Candida albicans", "value": "inactive"}, {"measurement": "MIC", "setting": "Raoultella planticola", "value": "> 125", "unit": "µg/mL"}, {"measurement": "MIC", "setting": "Micrococcus luteus", "value": "> 125", "unit": "µg/mL"}, {"measurement": "MIC", "setting": "Pseudomonas aeruginosa", "value": "> 125", "unit": "µg/mL"}]}
{"compound": "CC1=CC(c2oc(CO)cc(=O)c2O)c2ccccc2O1", "note": "(stereo unspecified)", "values": [{"measurement": "MIC", "setting": "Staphylococcus aureus [4]", "value": "> 125", "unit": "µg/mL"}, {"measurement": "MIC", "setting": "Escherichia coli [5]", "value": "> 125", "unit": "µg/mL"}, {"measurement": "MIC", "setting": "Bacillus subtilis [6]", "value": "> 125", "unit": "µg/mL"}, {"measurement": "MIC", "setting": "Candida albicans", "value": "inactive"}, {"measurement": "MIC", "setting": "Raoultella planticola", "value": "> 125", "unit": "µg/mL"}, {"measurement": "MIC", "setting": "Micrococcus luteus", "value": "> 125", "unit": "µg/mL"}, {"measurement": "MIC", "setting": "Pseudomonas aeruginosa", "value": "> 125", "unit": "µg/mL"}]}
{"compound": "O=c1cc(CO)oc(C2C=C(c3ccccc3Br)Oc3ccccc32)c1O", "note": "(stereo unspecified)", "values": [{"measurement": "MIC", "setting": "Staphylococcus aureus [4]", "value": "> 125", "unit": "µg/mL"}, {"measurement": "MIC", "setting": "Escherichia coli [5]", "value": "> 125", "unit": "µg/mL"}, {"measurement": "MIC", "setting": "Bacillus subtilis [6]", "value": "> 125", "unit": "µg/mL"}, {"measurement": "MIC", "setting": "Candida albicans", "value": "inactive"}, {"measurement": "MIC", "setting": "Raoultella planticola", "value": "> 125", "unit": "µg/mL"}, {"measurement": "MIC", "setting": "Micrococcus luteus", "value": "> 125", "unit": "µg/mL"}, {"measurement": "MIC", "setting": "Pseudomonas aeruginosa", "value": "> 125", "unit": "µg/mL"}]}
{"compound": "O=c1cc(CO)oc(C2C=C(c3ccc(Cl)cc3)Oc3ccccc32)c1O", "note": "(stereo unspecified)", "values": [{"measurement": "IC50", "setting": "Bacillus subtilis [1]", "value": 3.6, "unit": "µg/mL"}, {"measurement": "IC50", "setting": "Staphylococcus aureus [2]", "value": 9.1, "unit": "µg/mL"}, {"measurement": "MBC", "setting": "Escherichia coli [7]", "value": "> 125", "unit": "µg/mL"}, {"measurement": "MIC", "setting": "Staphylococcus aureus [4]", "value": 15.6, "unit": "µg/mL"}, {"measurement": "MIC", "setting": "Escherichia coli [5]", "value": "> 125", "unit": "µg/mL"}, {"measurement": "MIC", "setting": "Bacillus subtilis [6]", "value": 7.8, "unit": "µg/mL"}, {"measurement": "MIC", "setting": "Candida albicans", "value": "inactive"}, {"measurement": "MIC", "setting": "Raoultella planticola", "value": "> 125", "unit": "µg/mL"}, {"measurement": "MIC", "setting": "Micrococcus luteus", "value": "> 125", "unit": "µg/mL"}, {"measurement": "MBC", "setting": "Staphylococcus aureus [8]", "value": 15.6, "unit": "µg/mL"}, {"measurement": "MIC", "setting": "Pseudomonas aeruginosa", "value": "> 125", "unit": "µg/mL"}, {"measurement": "MBC", "setting": "Bacillus subtilis [9]", "value": 7.8, "unit": "µg/mL"}, {"measurement": "IC50", "setting": "Escherichia coli [3]", "value": "> 125", "unit": "µg/mL"}]}
{"compound": "CCC1=CC(c2oc(CO)cc(=O)c2O)c2ccccc2O1", "note": "(stereo unspecified)", "values": [{"measurement": "MIC", "setting": "Staphylococcus aureus [4]", "value": "> 125", "unit": "µg/mL"}, {"measurement": "MIC", "setting": "Escherichia coli [5]", "value": "> 125", "unit": "µg/mL"}, {"measurement": "MIC", "setting": "Bacillus subtilis [6]", "value": "> 125", "unit": "µg/mL"}, {"measurement": "MIC", "setting": "Candida albicans", "value": "inactive"}, {"measurement": "MIC", "setting": "Raoultella planticola", "value": "> 125", "unit": "µg/mL"}, {"measurement": "MIC", "setting": "Micrococcus luteus", "value": "> 125", "unit": "µg/mL"}, {"measurement": "MIC", "setting": "Pseudomonas aeruginosa", "value": "> 125", "unit": "µg/mL"}]}
{"compound": "Cc1ccc(C2=CC(c3oc(CO)cc(=O)c3O)c3ccccc3O2)cc1", "note": "(stereo unspecified)", "values": [{"measurement": "IC50", "setting": "Bacillus subtilis [1]", "value": 20.1, "unit": "µg/mL"}, {"measurement": "IC50", "setting": "Staphylococcus aureus [2]", "value": 18.6, "unit": "µg/mL"}, {"measurement": "MBC", "setting": "Escherichia coli [7]", "value": 15.6, "unit": "µg/mL"}, {"measurement": "MIC", "setting": "Staphylococcus aureus [4]", "value": 15.6, "unit": "µg/mL"}, {"measurement": "MIC", "setting": "Escherichia coli [5]", "value": 7.8, "unit": "µg/mL"}, {"measurement": "MIC", "setting": "Bacillus subtilis [6]", "value": 15.6, "unit": "µg/mL"}, {"measurement": "MIC", "setting": "Candida albicans", "value": "inactive"}, {"measurement": "MIC", "setting": "Raoultella planticola", "value": "> 125", "unit": "µg/mL"}, {"measurement": "MIC", "setting": "Micrococcus luteus", "value": "> 125", "unit": "µg/mL"}, {"measurement": "MBC", "setting": "Staphylococcus aureus [8]", "value": 31.2, "unit": "µg/mL"}, {"measurement": "MIC", "setting": "Pseudomonas aeruginosa", "value": "> 125", "unit": "µg/mL"}, {"measurement": "MBC", "setting": "Bacillus subtilis [9]", "value": 31.2, "unit": "µg/mL"}, {"measurement": "IC50", "setting": "Escherichia coli [3]", "value": 9.1, "unit": "µg/mL"}]}
{"compound": "O=c1cc(CO)oc(C2C=C(c3ccccc3)Oc3ccc(Cl)cc32)c1O", "note": "(stereo unspecified)", "values": [{"measurement": "MIC", "setting": "Staphylococcus aureus [4]", "value": "> 125", "unit": "µg/mL"}, {"measurement": "MIC", "setting": "Escherichia coli [5]", "value": "> 125", "unit": "µg/mL"}, {"measurement": "MIC", "setting": "Bacillus subtilis [6]", "value": "> 125", "unit": "µg/mL"}, {"measurement": "MIC", "setting": "Candida albicans", "value": "inactive"}, {"measurement": "MIC", "setting": "Raoultella planticola", "value": "> 125", "unit": "µg/mL"}, {"measurement": "MIC", "setting": "Micrococcus luteus", "value": "> 125", "unit": "µg/mL"}, {"measurement": "MIC", "setting": "Pseudomonas aeruginosa", "value": "> 125", "unit": "µg/mL"}]}
{"compound": "O=c1cc(CO)oc(C2C=C(c3cccc(O)c3)Oc3ccccc32)c1O", "note": "(stereo unspecified)", "values": [{"measurement": "MIC", "setting": "Staphylococcus aureus [4]", "value": "> 125", "unit": "µg/mL"}, {"measurement": "MIC", "setting": "Escherichia coli [5]", "value": "> 125", "unit": "µg/mL"}, {"measurement": "MIC", "setting": "Bacillus subtilis [6]", "value": "> 125", "unit": "µg/mL"}, {"measurement": "MIC", "setting": "Candida albicans", "value": "inactive"}, {"measurement": "MIC", "setting": "Raoultella planticola", "value": "> 125", "unit": "µg/mL"}, {"measurement": "MIC", "setting": "Micrococcus luteus", "value": "> 125", "unit": "µg/mL"}, {"measurement": "MIC", "setting": "Pseudomonas aeruginosa", "value": "> 125", "unit": "µg/mL"}]}
